# Results from publication PMC3095715 (Chemical biology & drug design, 2011).
# Target: human C3 (Homo sapiens, UniProt P01024)
# Assay: Surface plasmon resonance
# Type: binding
# Details: SPR
# Chain of human C3 (P01024 23-1663): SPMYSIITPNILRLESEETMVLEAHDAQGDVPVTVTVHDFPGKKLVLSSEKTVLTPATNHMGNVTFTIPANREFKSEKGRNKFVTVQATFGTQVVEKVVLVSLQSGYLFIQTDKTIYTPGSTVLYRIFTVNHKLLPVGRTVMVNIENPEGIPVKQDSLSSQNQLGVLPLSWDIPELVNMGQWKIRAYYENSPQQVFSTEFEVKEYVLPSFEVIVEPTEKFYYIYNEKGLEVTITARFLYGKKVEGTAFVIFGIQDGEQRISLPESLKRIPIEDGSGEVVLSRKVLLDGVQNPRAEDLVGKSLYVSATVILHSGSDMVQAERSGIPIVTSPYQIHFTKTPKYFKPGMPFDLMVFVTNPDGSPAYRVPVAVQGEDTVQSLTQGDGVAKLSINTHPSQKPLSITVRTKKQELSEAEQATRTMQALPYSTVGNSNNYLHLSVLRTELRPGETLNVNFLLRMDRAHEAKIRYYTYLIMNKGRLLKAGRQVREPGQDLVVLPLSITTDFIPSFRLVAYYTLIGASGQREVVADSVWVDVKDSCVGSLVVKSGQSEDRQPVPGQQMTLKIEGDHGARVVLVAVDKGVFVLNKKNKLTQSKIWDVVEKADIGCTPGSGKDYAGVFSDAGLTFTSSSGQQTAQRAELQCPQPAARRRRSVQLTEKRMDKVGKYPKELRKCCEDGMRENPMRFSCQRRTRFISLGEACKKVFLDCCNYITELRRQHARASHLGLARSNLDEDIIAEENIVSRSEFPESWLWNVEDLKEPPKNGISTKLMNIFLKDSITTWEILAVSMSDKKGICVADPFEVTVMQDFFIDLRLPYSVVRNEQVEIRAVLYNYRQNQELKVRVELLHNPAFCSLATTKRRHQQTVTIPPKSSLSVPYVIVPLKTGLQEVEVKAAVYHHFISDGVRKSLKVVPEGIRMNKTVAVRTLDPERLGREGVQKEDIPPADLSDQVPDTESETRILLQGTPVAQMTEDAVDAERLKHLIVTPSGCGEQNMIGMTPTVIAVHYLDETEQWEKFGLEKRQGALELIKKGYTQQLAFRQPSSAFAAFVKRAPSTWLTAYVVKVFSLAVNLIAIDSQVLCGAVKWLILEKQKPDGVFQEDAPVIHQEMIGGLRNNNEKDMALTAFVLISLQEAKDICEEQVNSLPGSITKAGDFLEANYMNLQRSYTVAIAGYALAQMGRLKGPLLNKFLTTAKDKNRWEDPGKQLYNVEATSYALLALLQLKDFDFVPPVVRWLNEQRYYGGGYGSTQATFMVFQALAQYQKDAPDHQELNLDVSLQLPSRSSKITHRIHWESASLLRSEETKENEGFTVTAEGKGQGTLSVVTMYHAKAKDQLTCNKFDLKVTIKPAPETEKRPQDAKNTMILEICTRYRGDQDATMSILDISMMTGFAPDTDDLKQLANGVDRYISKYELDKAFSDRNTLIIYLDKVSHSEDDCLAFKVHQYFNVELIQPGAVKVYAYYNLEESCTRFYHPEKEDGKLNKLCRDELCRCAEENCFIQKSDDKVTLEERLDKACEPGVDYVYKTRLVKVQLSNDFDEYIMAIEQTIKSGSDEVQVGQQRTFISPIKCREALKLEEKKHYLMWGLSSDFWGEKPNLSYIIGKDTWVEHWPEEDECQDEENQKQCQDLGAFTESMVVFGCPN
substance,measurement,value
Ac-W[CVWQDWGAWRC]W-(PEG)8-K-(biotin)-NH2 (disulfide) [Peptide X],Binding to C3 (result in words),not to bind to C3
